Assay results from patent US20240408093A1, “HETEROBIFUNCTIONAL COMPOUNDS AND THEIR USE IN TREATING DISEASE” (HALDA THERAPEUTICS OPCO, INC., priority 2022, published 2024).

Tests used:
[1] = target: T1, GSPT1 (Homo sapiens, UniProt P15170+Q96SW2); experiment: GSPT1 HiBiT degradation assay; format: cell-based; conditions: HEK293 LgBiT GSPT1 HiBiT cells, 6 hours
T1 construct: host or cells: HEK293 LgBiT / GSPT1 HiBiT CRISPR knock-in
Text: Promega developed a HEK293 cell line that constitutively expresses LgBiT protein and GSPT1_HiBiT fusion protein. When both proteins are present, the HiBiT portion of the fusion protein combines with LgBiT protein to form a functional luciferase enzyme. Endurazine, a cell permeable small molecule, is converted by cellular esterases into furimazine, which the luciferase enzyme uses as a substrate to generate luminescence. When GSPT1 is degraded, the HiBit is also degraded. This prevents formation of fully functional luciferase, leading to a loss in luminescence. GSPT1 degradation therefore correlates with a decrease in luminescence and can be measured continuously over time. The concentration of compound at which 50% GSPT1 degradation occurs (DC50) may be calculated using this system.
HEK293 LgBiTGSPT1 HiBiT CRISPR Knock-in cells were cultured in DMEM Media supplemented with 10% Heat-inactivated FBS, 1% Penicillin/Streptomycin, 200 μg/mL hygromycin and stored in a humidified incubator set at 37° C. and 5% CO2. 18-24 hours prior to compound treatment, cells were seeded at 1000 cells/well in a 384-well tissue culture-treated white plates in 25 μL media lacking selection for 18-24 hours. The plates were spun at 300 g for 30 seconds and stored in the incubator overnight. After 24 hours, compounds are titrated in DMSO and added to media supplemented with endurazine substrate. A 25 μL aliquot of 2× compound/endurazine in media is then added to the 384-well microplate with seeded cells. (Endurazine is used at a final concentration of 0.5×). The plate was spun at 300 g for 30 seconds and stored in the incubator. After 6 hours, the plate was read on a Perkin Elmer MultiMode Plate Reader Envision 2105 to measure luminescence signal. Data were plotted in Prism (Graphpad) and the concentration of compound at which 50% GSPT1 degradation occurs (DC50) was calculated.

[2] = system: HeLa cells (ATCC CCL-2); experiment: Cellular growth inhibition assay, HeLa cells (Example 16); format: cell-based; conditions: Homo sapiens, 72 hours, CellTiter-Glo 2.0
Procedure: (§1) Exemplary compounds were tested for ability to inhibit the proliferation of HEK293 cells (ATCC CRL-1573) and HeLa cells (ATCC CCL-2).
(§2) HEK293 and HeLa cells were cultured in DMEM (Gibco 11995), supplemented with 10% Heat-inactivated FBS (Gibco A38400-01) and 1% Penicillin/Streptomycin (Gibco 15140-122) at 37° C. with 5% CO2 in a humidified tissue culture incubator. Cells were seeded at 500 cells/well in 384-well, Poly-D-lysine-treated blackplates (Perkin Elmer 6007710) in 25 μL media lacking selection for 18-24 hours. Plates were spun at 300 g for 30 seconds and stored in the incubator overnight. After 24 hours, a 25 μL aliquot of compound-containing medium was added in each well, at a final top concentration of 10 μM test compound, with 3-fold dilutions, using DMSO alone as a negative control. Plates were then spun at 300×g for 3 minutes again and cultured at 37° C. with 5% CO2. After 72 hours, cell viability was quantified with CellTiter-Glo 2.0 (Promega). After equilibrating cell plates at room temperature for 30 minutes, 25 μL CellTiter-Glo 2.0 reagent was dispensed into each well. Plates were mixed on a shaker for 2 minutes at 500 rpm, followed by a 10-minute incubation at room temperature. Luminescence readings were measured with an EnVision Plate Reader (Perkin Elmer). Data was normalized to DMSO treated cell wells. A four-parameter non-linear regression curve fit was applied to dose-response data in Prism to determine the half maximal growth inhibitory concentration (GI50) of each compound.

[3] = system: HEK293 cells (ATCC CRL-1573); experiment: Cellular growth inhibition assay, HEK293 cells (Example 16); format: cell-based; conditions: Homo sapiens, 72 hours, CellTiter-Glo 2.0
Procedure: as §1, §2

[4] = target: KRAS G12C (Homo sapiens, UniProt P01116, G12C); experiment: KRAS G12C nucleotide exchange assay (SOS1-mediated, HTRF); format: biochemical; set-up: GST-tagged KRAS G12C (amino acids 2-169); conditions: 1 hr pre-incubation
KRAS G12C, sequence (P01116 2-169 isoform P01116-2 G12C): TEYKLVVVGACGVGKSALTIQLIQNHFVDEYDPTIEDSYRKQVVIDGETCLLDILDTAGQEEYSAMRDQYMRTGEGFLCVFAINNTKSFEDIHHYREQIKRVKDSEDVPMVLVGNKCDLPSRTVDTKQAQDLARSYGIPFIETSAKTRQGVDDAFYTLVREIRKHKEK
Procedure: KRAS target engagement (IC50 determination) was performed using a KRAS G12C nucleotide exchange assay. Specifically, compounds were tested against KRAS G12C in 10-point concentration IC50 mode with 3-fold serial dilution at a starting concentration of 10 μM. ARS1620 was used as a control.
Briefly, GST-tagged KRAS G12C (amino acids 2-169) was mixed with anti-GST Tb antibody (1.5× solution) and 10 μL was delivered to reaction wells. Compounds were delivered using an acoustic dispenser (Echo, Labcyte) and pre-incubated with protein for 1 hr at RT. KRAS/anti-GST Tb Ab/compound mixture was incubated for 1 hour at room temperature. A 3× solution of SOS1 (amino acids 564-1049) and GTP-DY-647P1 (GTP*) was prepared in reaction buffer. A 5 μL aliquot of SOS1/GTP* solution was added to reaction wells to initiate the exchange reaction. No-SOS1 reaction or max compound concentration was used as blank. The final concentrations of KRAS G12C, SOS1, and GTP* were 30 nM, 20 nM, and 0.15 μM, respectively. SOS1 mediated exchange of GDP to GTP-DY-647P was measured using HTRF (Ex/Em=(320-75/665-7.5; 615-8.5)) using an Envision Plate Reader (Perkin Elmer). IC50 determination was performed using a Sigmoidal dose response (variable slope) equation.

T1 sequence (P15170 whole entry): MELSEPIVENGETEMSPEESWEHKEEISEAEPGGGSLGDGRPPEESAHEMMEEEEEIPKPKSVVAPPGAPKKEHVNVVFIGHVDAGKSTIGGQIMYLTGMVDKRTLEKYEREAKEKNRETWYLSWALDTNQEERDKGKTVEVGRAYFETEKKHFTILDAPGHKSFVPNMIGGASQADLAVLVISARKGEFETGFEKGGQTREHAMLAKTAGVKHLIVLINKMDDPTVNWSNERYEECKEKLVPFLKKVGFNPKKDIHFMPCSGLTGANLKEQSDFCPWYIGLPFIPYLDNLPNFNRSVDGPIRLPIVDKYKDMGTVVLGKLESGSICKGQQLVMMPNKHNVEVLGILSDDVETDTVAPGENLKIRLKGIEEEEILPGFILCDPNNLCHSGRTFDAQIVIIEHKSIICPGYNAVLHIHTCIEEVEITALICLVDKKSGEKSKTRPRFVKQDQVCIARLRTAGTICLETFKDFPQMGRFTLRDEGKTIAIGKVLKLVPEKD
T1 sequence (Q96SW2 whole entry): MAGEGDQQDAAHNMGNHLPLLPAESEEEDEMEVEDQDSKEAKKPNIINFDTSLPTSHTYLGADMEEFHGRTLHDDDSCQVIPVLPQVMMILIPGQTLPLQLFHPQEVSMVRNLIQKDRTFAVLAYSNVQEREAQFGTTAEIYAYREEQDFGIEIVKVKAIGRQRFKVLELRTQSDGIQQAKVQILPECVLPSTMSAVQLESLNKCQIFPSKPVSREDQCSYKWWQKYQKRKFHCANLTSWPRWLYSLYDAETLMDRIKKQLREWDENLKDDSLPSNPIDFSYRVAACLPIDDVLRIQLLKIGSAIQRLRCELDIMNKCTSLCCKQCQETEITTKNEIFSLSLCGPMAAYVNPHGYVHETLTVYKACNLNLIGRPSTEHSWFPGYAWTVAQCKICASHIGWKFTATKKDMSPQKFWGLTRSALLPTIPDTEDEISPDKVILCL
T1 sequence (Q16531 whole entry partner): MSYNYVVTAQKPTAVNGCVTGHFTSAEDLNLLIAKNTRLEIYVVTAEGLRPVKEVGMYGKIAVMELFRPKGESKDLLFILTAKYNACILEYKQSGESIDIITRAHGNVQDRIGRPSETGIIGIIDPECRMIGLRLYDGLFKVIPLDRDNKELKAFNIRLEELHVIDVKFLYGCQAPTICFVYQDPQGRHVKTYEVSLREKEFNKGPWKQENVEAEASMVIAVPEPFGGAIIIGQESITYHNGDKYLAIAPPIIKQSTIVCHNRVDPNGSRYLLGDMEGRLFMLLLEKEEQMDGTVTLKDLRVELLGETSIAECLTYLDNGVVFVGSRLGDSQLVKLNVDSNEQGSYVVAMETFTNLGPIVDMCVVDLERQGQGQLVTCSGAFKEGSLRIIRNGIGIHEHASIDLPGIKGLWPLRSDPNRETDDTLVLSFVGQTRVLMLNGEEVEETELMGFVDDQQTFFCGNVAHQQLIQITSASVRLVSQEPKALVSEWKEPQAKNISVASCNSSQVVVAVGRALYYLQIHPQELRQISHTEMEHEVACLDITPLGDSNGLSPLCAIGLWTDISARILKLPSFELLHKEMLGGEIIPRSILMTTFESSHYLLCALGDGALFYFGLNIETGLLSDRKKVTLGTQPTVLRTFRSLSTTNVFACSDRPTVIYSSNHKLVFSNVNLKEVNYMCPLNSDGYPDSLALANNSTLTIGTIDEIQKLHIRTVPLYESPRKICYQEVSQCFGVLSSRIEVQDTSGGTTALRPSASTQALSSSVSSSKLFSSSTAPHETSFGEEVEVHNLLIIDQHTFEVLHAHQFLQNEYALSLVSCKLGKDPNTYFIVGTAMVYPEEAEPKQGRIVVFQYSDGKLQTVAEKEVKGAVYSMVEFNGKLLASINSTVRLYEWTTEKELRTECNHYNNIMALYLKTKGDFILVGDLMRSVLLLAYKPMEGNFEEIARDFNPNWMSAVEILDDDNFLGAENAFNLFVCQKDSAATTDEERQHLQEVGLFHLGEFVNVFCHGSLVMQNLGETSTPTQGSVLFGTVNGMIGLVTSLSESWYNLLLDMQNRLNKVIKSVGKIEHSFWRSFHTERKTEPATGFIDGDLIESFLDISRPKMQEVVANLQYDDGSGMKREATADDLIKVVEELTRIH

| SMILES | DC50 [1] [nM] | GI50 [2] [nM] | GI50 [3] [nM] | IC50 [4] [nM] |
| --- | --- | --- | --- | --- |
| C=C(COc1c(F)cc(CN2C(=O)CCC(N3Cc4cc(CNC(=O)Nc5ccc(C)c(Cl)c5)ccc4C3=O)C2=O)cc1F)C(=O)N1CCC[C@@H](n2nc(-c3ccc(Oc4ccccc4)cc3)c3c(N)ncnc32)C1 (stereo partly shown) [Compound I-51] | > 2500 | > 10000 | > 10000 |  |
| C=C(Cn1ccc2ccc(NC(=O)NCc3ccc4c(c3)CN(C3CCC(=O)NC3=O)C4=O)cc21)C(=O)N1CCN(c2nc(OC[C@@H]3CCCN3C)nc3c2CCN(c2cccc4cccc(Cl)c24)C3)C[C@@H]1CC#N (stereo partly shown) [Compound I-93] |  | 500 to 1500 | 500 to 1500 |  |
| C=C(CN(C(=O)NCc1ccc2c(c1)CN(C1CCC(=O)NC1=O)C2=O)c1cc(Cl)cc([N+](=O)[O-])c1)C(=O)N1CCC[C@@H](n2nc(-c3ccc(Oc4ccccc4)cc3)c3c(N)ncnc32)C1 (stereo partly shown) [Compound I-37] | > 2500 |  |  |  |
| C=C(CN(C(=O)NCc1ccc2c(c1)CN(C1CCC(=O)NC1=O)C2=O)c1cc(Cl)cc(OC)c1)C(=O)N1CCC[C@@H](n2nc(-c3ccc(Oc4ccccc4)cc3)c3c(N)ncnc32)C1 (stereo partly shown) [Compound I-40] | > 2500 | > 10000 | > 10000 |  |
| C=C(CN(Cc1ccc2c(c1)CN(C1CCC(=O)NC1=O)C2=O)C(=O)Nc1ccc(C)c(Cl)c1)C(=O)N1CCN(c2nc(OC[C@@H]3CCCN3C)nc3c2CCN(c2cccc4cccc(Cl)c24)C3)C[C@@H]1CC#N (stereo partly shown) [Compound I-33] | > 2500 | 1500 to 10000 | 1500 to 10000 |  |
| C=C(CN1C(=O)CCC(N2Cc3cc(CNC(=O)NCc4cccc(C(F)(F)F)c4O)ccc3C2=O)C1=O)C(=O)N1CCN(c2nc(OC[C@@H]3CCCN3C)nc3c2CCN(c2cccc4cccc(Cl)c24)C3)C[C@@H]1CC#N (stereo in doubt) [Compound I-94] |  | > 10000 | 1500 to 10000 |  |
| C=C(CN(C(=O)NCc1ccc2c(c1)CN(C1CCC(=O)NC1=O)C2=O)c1ccc(OC)c(Cl)c1)C(=O)N1CCC[C@@H](n2nc(-c3ccc(Oc4ccccc4)cc3)c3c(N)ncnc32)C1 (stereo partly shown) [Compound I-39] | > 2500 | > 10000 | > 10000 |  |
| C=C(COc1ccc2c(Cl)c(NC(=O)NCc3ccc4c(c3)CN(C3CCC(=O)NC3=O)C4=O)ccc2c1)C(=O)N1CCN(c2nc(OC[C@@H]3CCCN3C)nc3c2CCN(c2cccc4cccc(Cl)c24)C3)C[C@@H]1CC#N (stereo partly shown) [Compound I-92] |  | > 10000 | < 500 |  |
| C=C(COc1cc(NC(=O)NCc2ccc3c(c2)CN(C2CCC(=O)NC2=O)C3=O)cc(OC)c1Cl)C(=O)N1CCN(c2nc(OC[C@@H]3CCCN3C)nc3c2CCN(c2cccc4cccc(Cl)c24)C3)C[C@@H]1CC#N (stereo partly shown) [Compound I-96] |  | > 10000 | > 10000 |  |
| C=C(CN(C(=O)NCc1ccc2c(c1)CN(C1CCC(=O)NC1=O)C2=O)c1ccc(C)c(Cl)c1)C(=O)N1CCN(c2nc(OC[C@@H]3CCCN3C)nc3c2CCN(c2cccc4cccc(Cl)c24)C3)C[C@@H]1CC#N (stereo partly shown) [Compound I-34] | 50 to 500 | 1500 to 10000 | < 500 |  |
| C=C(COC(=O)NC1CCC(Nc2nc(NCc3ccc(-c4ccccn4)cc3)c3ncn(C(C)C)c3n2)CC1)C(=O)N1CCN(c2nc(OC[C@@H]3CCCN3C)nc3c2CCN(c2cccc4cccc(Cl)c24)C3)C[C@@H]1CC#N (stereo partly shown) [II-192] |  | < 500 | 500 to 1500 |  |
| C=C(COC(=O)NCc1cc(Cl)cc(NC(=O)NCc2ccc3c(c2)CN(C2CCC(=O)NC2=O)C3=O)c1)C(=O)N1CCC[C@@H](n2nc(-c3ccc(Oc4ccccc4)cc3)c3c(N)ncnc32)C1 (stereo partly drawn) [Compound I-53, 2-((R)-3-(4-amino-3-(4-phenoxyphenyl)-1H-pyrazolo[3,4-d]pyrimidin-1-yl)piperidine-1-carbonyl)allyl (3-chloro-5-(3-((2-(2,6-dioxopiperidin-3-yl)-1-oxoisoindolin-5-yl)methyl)ureido)benzyl)carbamate] | 50 to 500 | 500 to 1500 | 500 to 1500 |  |
| C=C(CN1C(=O)CCC(N2Cc3cc(CNC(=O)Nc4ccc(C)c(Cl)c4)ccc3C2=O)C1=O)C(=O)N1CCN(c2nc(OC[C@@H]3CCCN3C)nc3c2CCN(c2cccc4cccc(Cl)c24)C3)C[C@@H]1CC#N (stereo partly drawn) [Compound I-2, 1-(3-chloro-4-methyl-phenyl)-3-[[2-[1-[2-[(2S)-4-[7-(8-chloro-1-naphthyl)-2-[[(2S)-1-methylpyrrolidin-2-yl]methoxy]-6,8-dihydro-5H-pyrido[3,4-d]pyrimidin-4-yl]-2-(cyanomethyl)piperazine-1-carbonyl]allyl]-2,6-dioxo-3-piperidyl]-1-oxo-isoindolin-5-yl]methyl]urea] | 50 to 500 |  |  | > 10000 |
| C=C(COc1c(Cl)cccc1NC(=O)NCc1ccc2c(c1)CN(C1CCC(=O)NC1=O)C2=O)C(=O)N1CCC[C@@H](n2nc(-c3ccc(Oc4ccccc4)cc3)c3c(N)ncnc32)C1 (stereo partly shown) [Compound I-115] | < 50 | 500 to 1500 | 1500 to 10000 |  |
| C=C(COc1cccc(NC(=O)NCc2ccc3c(c2)CN(C2CCC(=O)NC2=O)C3=O)c1Cl)C(=O)N1CCN(c2nc(OC[C@@H]3CCCN3C)nc3c2CCN(c2cccc4cccc(Cl)c24)C3)C[C@@H]1CC#N (stereo partly shown) [Compound I-91] |  | > 10000 | > 10000 |  |
| C=C(CN1C(=O)CCC(N2Cc3cc(CNC(=O)Nc4ccc(C)c(Cl)c4)ccc3C2=O)C1=O)C(=O)N1CCN(c2nc(=O)n(-c3c(C)ccnc3C(C)C)c3nc(-c4c(O)cccc4F)c(F)cc23)[C@@H](C)C1 (stereo partly drawn) [Compound I-1, 1-(3-chloro-4-methyl-phenyl)-3-[[2-[1-[2-[(3S)-4-[6-fluoro-7-(2-fluoro-6-hydroxy-phenyl)-1-(2-isopropyl-4-methyl-3-pyridyl)-2-oxo-pyrido[2,3-d]pyrimidin-4-yl]-3-methyl-piperazine-1-carbonyl]allyl]-2,6-dioxo-3-piperidyl]-1-oxo-isoindolin-5-yl]methyl]urea] | 500 to 2500 |  |  |  |
| C=C(COc1ccc(CN2C(=O)CCC(N3Cc4cc(CNC(=O)Nc5ccc(C)c(Cl)c5)ccc4C3=O)C2=O)cc1)C(=O)N1CCC[C@@H](n2nc(-c3ccc(Oc4ccccc4)cc3)c3c(N)ncnc32)C1 (stereo partly shown) [Compound I-36] | > 2500 | > 10000 | > 10000 |  |
